≈ marks a conversion by molar mass, not a printed value.
Columns and labels:
[1] = Equilibrium solubility of itraconazole in water and buffers at 10 wt % cyclodextrin; type: physicochemical; details: water
Protocol: Stock solutions of cyclodextrins were prepared by dissolving an accurately weighed amount of previously dried cyclodextrin in water or in buffer to give a final cyclodextrin concentration of 10 wt %. In this example, the cyclodextrins were HBenBCD, HPBCD, and SBEBCD. The buffers were 0.05 M pH3 phosphate, 0.05 M pH 3 citrate, and 0.05 M pH 4.8 acetate.
(§1) The following is a typical procedure for determining the solubility of a drug in a given solvent. To each well of a 2 mL 96-well polypropylene mixing plate was added excess drug (ca. 5-10 mg). The drug was typically added by using a metal loading plate having cavities that will hold an approximate predetermined amount of drug. The cavities on the loading plate were arranged so that they corresponded to the individual wells of the 96-well mixing plate. A line of drug was placed at one end of the loading plate and a glass plate was used to distribute the drug into each cavity. The 96-well mixing plate was placed on the loading plate then inverted and tapped so that the drug dropped into the appropriate well of the mixing plate.
(§2) To each well of the pre-loaded 96-well mixing plate was added 300-500 μL of water or buffer (blanks with no CD) or the appropriate CD solution. Typically, each determination was in triplicate. The blanks were used to determine the intrinsic solubility (So) of drug in that solution and the well containing the CD solutions were used to determine the solubility of drug due to CD (Sw). After addition of the stock solutions, the plate was sealed using aluminum foil with a non-volatile adhesive on one surface. The plate was placed on a rotary shaking plate (Helidolph Titramax 1000) and the plate was shaken at 800-1200 rpm at 23° C.±2° for 48-72 h. During the mixing period, the plate was inspected to insure that each well contained undissolved, excess drug. Additional drug was added if necessary.
(§3) Following the mixing period, the solutions in each well were transferred to the corresponding wells of a 96-well 2 mL multiscreen filter plate using a multi-channel pipette. The bottom of each well was a hydrophilic membrane (Millipore Corporation). The filter plate was placed on top of a vacuum manifold and the solutions were filtered at ca. 20 mm Hg into the corresponding wells of a 2 mL storage plate. The duration of the filtration period was typically no more than 60 seconds. The storage plate was then sealed with a silicon mat and samples were removed for analysis as appropriate.
(§4) The drug content in each well can be determined by a number of methods. Ultraviolet spectroscopy (UV) or high pressure liquid chromatography (HPLC) is preferred. In the present example, UV spectroscopy was used. Typically, 10-20 μL of drug solution was transferred to the corresponding well of a 96-well measurement plate (UV-STAR plates from Greiner with a spectral range of 190-400 nm) and diluted with 1/1 water/ethanol so that the absorbance was in the linear response range. Measurements were made using a SpectraMax Plus 384 Molecular Devices multi-well plate reader. Absorbance was converted to drug concentration using the appropriate absorbtivity for the drug. The drug concentrations were then exported to the appropriate software package for final analysis.

[2] = Equilibrium solubility of itraconazole in water and pH 3 phosphate buffer, 0 to 25 wt % cyclodextrin; type: physicochemical
Protocol: as §1
(§5) To each well of the pre-loaded 96-well mixing plate was added 300-500 μL of water or buffer (blanks with no CD) or the appropriate CD solution. […]
as §4, with “Ultraviolet spectroscopy (UV) or high pressure liquid chromatography (HPLC) is preferred. In the present example, UV spectroscopy was used.” left out, “The drug concentrations were then exported to the appropriate software package for final analysis.” left out

physchem = type: physicochemical; details: for solubility: 23 °C, thermodynamic from solid
Protocol: as §1, §2, §3, §4
The general protocol described in Example 1 was utilized to determine the equilibrium solubility of voriconazole in water and buffers at 10 wt % HBenBCD concentration.

[3] = type: physicochemical; details: pH 3
Protocol: as §1, §5
as §4, with “Ultraviolet spectroscopy (UV) or high pressure liquid chromatography (HPLC) is preferred. In the present example, UV spectroscopy was used.” left out, “The drug concentrations were then exported to the appropriate software package for final analysis.” left out

[4] = Equilibrium solubility of clotrimazole in water, 0 to ca. 25 wt % cyclodextrin; type: physicochemical
Protocol: as §1, §5
as §4, with “Ultraviolet spectroscopy (UV) or high pressure liquid chromatography (HPLC) is preferred. In the present example, UV spectroscopy was used.” left out, “The drug concentrations were then exported to the appropriate software package for final analysis.” left out

[5] = Equilibrium solubility of ketoconazole in water and buffers at 10 wt % HBenBCD; type: physicochemical
Protocol: as §1, with “The drug was typically added by using a metal loading plate having cavities that will hold an approximate predetermined amount of drug.” left out
as §2, §3
as §4, with “Typically, 10-20 μL of drug solution was transferred to the corresponding well of a 96-well measurement plate (UV-STAR plates from Greiner with a spectral range of 190-400 nm) and diluted with 1/1 water/ethanol so that the absorbance was in the linear response range.” left out
The general protocol described in Example 1 was utilized to determine the equilibrium solubility of ketoconazole in water and buffers at 10 wt % HBenBCD concentration.

Compound: itraconazole
- Sw/So ([1]; 10 wt % HBenBCD): 17.2
- solubility of itraconazole due to CD (Sw) ([1]; 10 wt % HBenBCD): 0.515 ng/mL
- Sw/So ([1]; 10 wt % HPBCD): 3.8
- Sw/So ([1]; 10 wt % SBEBCD): 4.2
- intrinsic solubility (So) of itraconazole ([1]; no cyclodextrin): 0.03 ng/mL
- Sw/So for HBenBCD, fold greater than that for HPBCD ([2]; ca. 25 wt % CD): 4 X
- Sw/So ([2]; ca. 25 wt % HBenBCD): 132

Compound: C[C@@H](c1ncncc1F)[C@](O)(Cn1cncn1)c1ccc(F)cc1F (single isomer, unassigned) [voriconazole]
- Sw/So (physchem): 9.8
- solubility (physchem; pH 1.2, aqueous with cosolvent or surfactant or cyclodextrin, Sw (solubility with CD)): 10.2 mg/mL (≈ 29.2 mM)
- solubility (physchem; pH 1.2, simulated gastric fluid, So (intrinsic solubility)): 3.2 mg/mL (≈ 9.16 mM)
- Sw/So (physchem; pH 1.2): 3.2
- Sw/So (physchem; pH 7.3): 9.6
- more voriconazole solubilized by HBenBCD than SBEBCD [3]: 25%

Compound: Clc1ccccc1C(c1ccccc1)(c1ccccc1)n1ccnc1 [clotrimazole]
- Sw/So for HBenBCD, fold greater than that for HPBCD ([4]; ca. 25 wt % CD): 2.4 X
- Sw/So ([4]; ca. 25 wt % HBenBCD): 12.3

Compound: CC(=O)N1CCN(c2ccc(OC[C@H]3CO[C@](Cn4ccnc4)(c4ccc(Cl)cc4Cl)O3)cc2)CC1 (racemic) [ketoconazole]
- Sw/So ([5]; pH 3 D,L-tartrate): 2.7
- Sw/So ([5]; pH 3 D-tartrate): 3.2
- Sw/So ([5]; pH 3 L-tartrate): 2.8
- Sw/So ([5]; pH 3 citrate): 3.3
- Sw/So ([5]; pH 3 phosphate): 4.3
- Sw/So ([5]; pH 4.8 acetate): 95.5
- Sw/So ([5]; pH 7.3 phosphate): 548.9
- Sw/So ([5]; water): 600.4

Reference: patent US20070082870A1, “Pharmaceutical formulations of cyclodextrins and antifungal azole compounds” (priority 2005, published 2007)
